Values of other authors as cited in PMC8146789, “20-Hydroxyecdysone, from Plant Extracts to Clinical Use: Therapeutic Potential for the Treatment of Neuromuscular, Cardio-Metabolic and Respiratory Diseases” (Biomedicines, 2021).
Where two headings read alike, the source gives them in different places.

Legend:
C2C12 myotubes = tested on: C2C12 myotubes; set-up: method as in PMID 24974955; details: E2 1 nM; ref [54]; cited from earlier work
[1] = tested on: myostatin gene expression in C2C12 cells; details: cited from earlier work
ERα = tested on: ERα; set-up: method as in PMID 24974955; details: ref [54]; cited from earlier work
Erβ = tested on: Erβ; set-up: method as in PMID 24974955; details: ref [54]; cited from earlier work
[2] = set-up: method as in PMID 5719028, PMID 30428419; details: ref [154],[155]; cited from earlier work
[3] = rat, in vivo, po; cited from earlier work
[4] = set-up: method as in PMID 3355591, PMID 2906596; details: mice, i.p., ref [123],[125], cited from earlier work
[5] = humans, ref [132], cited from earlier work
[6] = sheep, ingested; ref [132]; cited from earlier work
rats [7] = tested on: rats; set-up: method as in ref [121] = [121]; 121. Ogawa S. Nishimoto N. Matsuda H. Pharmacology of ecdysones un vertebrates Invertebrate Endocrinology and Hormonal Heterophylly Burdette W.J. Springer Berlin, Germany 1974 341 344; details: ref [121]; cited from earlier work
mice = details: ref Ogawa et al. [121], cited from earlier work
rats [8] = details: long-term feeding 0.2–2 g/kg/day, ref [121]; cited from earlier work

In the case of `C[C@]12CC[C@@H]3c4ccc(O)cc4CC[C@H]3[C@@H]1CC[C@@H]2O` [E2, Estradiol, reference compound], the myotube diameter (C2C12 myotubes) is listed as “enhanced myotube diameter”, the myostatin gene expression ([1]; C2C12 cells, ref [113]) is listed as “inhibit myostatin gene expression in a dose-dependent manner” and the “activation of ERE reporter gene” value (ERα) is listed as “could be activated dose dependently”. For the same compound, the “activation of ERE reporter gene” value (Erβ) was “could be activated dose dependently”.
In the case of D-Ala^7-Ang(1-7), the “effect on the inhibition of myostatin gene expression by 20E” value ([1]; C2C12 cells, ref [113]) is given as “effective at preventing the inhibition brought about by 20E” and the “effect on the inhibition of myostatin gene expression by Ang(1-7)” value ([1]; C2C12 cells, ref [113]) is given as “abolished”.
For IGF-1: insulin-like growth factor-1, the myostatin gene expression ([1]; C2C12 myotubes, 6 h treatment, ref [103]) is listed as “markedly reduces myostatin gene expression”.
For `CC(=O)[C@H]1CC[C@@]2(O)C3=CC(=O)[C@@H]4C[C@@H](O)[C@@H](O)C[C@]4(C)C3CC[C@]12C` (stereo partly shown) [Post, poststerone], the anabolic activity [2] is given as “seem to retain some anabolic activity” and the bioavailability [3] is given as “ca. 19%”.
In the case of `C[C@]12CC[C@@H]3c4ccc(O)cc4C(=NOCC(=O)O)C[C@H]3[C@@H]1CC[C@@H]2O` [E2-CMO, estradiol 6-carboxymethyloxime], the myostatin gene expression ([1]; C2C12 cells, ref [113]) is listed as “inhibit myostatin gene expression in C2C12 cells like E2”.
For `C[C@]12CC[C@@H]3c4ccc(O)cc4CC[C@H]3[C@@H]1CC[C@H]2O` [17αE2, 17-epi-estradiol], the myostatin gene expression ([1]; C2C12 cells, ref [113]) is given as “inhibit myostatin gene expression in C2C12 cells”.
For “Angiotensin(1-7): natural ligand for the GPCR Mas1 (DRVYIHP; Angiotensin 1-7; UniProt P01019 25-31, looked up)”, the myostatin gene expression ([1]; C2C12 cells, ref [113]) is given as “partially inhibits myostatin gene expression”.
For `C[C@H]([C@H](O)CCC(C)(C)O)[C@H]1CC[C@@]2(O)C3=CC(=O)[C@@H]4C[C@@H](O)[C@@H](O)C[C@]4(C)[C@H]3CC[C@]12C` [E, ecdysone], the “time to full excretion of radioactivity” value ([4]; undiluted radiolabelled ecdysone) is listed as ≤ 24 h, the “time until essentially all radioactivity is located in the intestine” value [4] is listed as 45 to 60 min and the “time of plasma titre maximum” value ([5]; ingested) is listed as “ca. 30 min”. The “effective half-time of elimination from the blood” value [5] was 4 h, the “effective half-time of elimination from the urine” value [5] was 3.1 h and the “time of plasma titre maximum” value [6] was “ca. 30 min”.
For `C[C@]12C[C@H](O)[C@H](O)C[C@H]1C(=O)C=C1[C@@H]2CC[C@]2(C)C(=O)CC[C@@]12O` [rubrosterone], the anabolic activity [2] is listed as “seem to retain some anabolic activity”.
For D-Pro^7-Ang(1-7), the “effect on the inhibition of myostatin gene expression by 20E” value ([1]; C2C12 cells, ref [113]) is given as “effective at preventing the inhibition brought about by 20E” and the “effect on the inhibition of myostatin gene expression by Ang(1-7)” value ([1]; C2C12 cells, ref [113]) is given as “abolished”.
In the case of `CC(CO)CC[C@@H](O)[C@](C)(O)[C@H]1CC[C@@]2(O)C3=CC(=O)[C@@H]4C[C@@H](O)[C@@H](O)C[C@]4(C)[C@H]3CC[C@]12C` (stereo partly shown) [inokosterone], the “sex hormonal activity, anti-inflammatory or anabolic effects” value (rats [7]) is listed as “did not have”, the LD50 (mice; i.p.-injected) is listed as 7800 mg/kg and the LD50 (mice; ingested) is listed as > 9000 mg/kg. The subacute toxicity (rats [8]) was “no subacute toxicity was observed”.
